Assay results as given in patent US20100035867A1 (priority 2006, published 2010).

Key:
adenylyl cyclase = assay type: cell-based, human
T84 cells = assay type: cell-based, human; conditions: 50 μM compound
[1] = molecular target: T1, guanylyl cyclase type A (GC-A) (Rattus norvegicus, UniProt P18910); test: ANP-induced cyclic GMP accumulation in RFL-6 fibroblast cells; conditions: RFL-6 cells, 1 μM ANP, 50 μM compound
T1 sequence (P18910 29-1057): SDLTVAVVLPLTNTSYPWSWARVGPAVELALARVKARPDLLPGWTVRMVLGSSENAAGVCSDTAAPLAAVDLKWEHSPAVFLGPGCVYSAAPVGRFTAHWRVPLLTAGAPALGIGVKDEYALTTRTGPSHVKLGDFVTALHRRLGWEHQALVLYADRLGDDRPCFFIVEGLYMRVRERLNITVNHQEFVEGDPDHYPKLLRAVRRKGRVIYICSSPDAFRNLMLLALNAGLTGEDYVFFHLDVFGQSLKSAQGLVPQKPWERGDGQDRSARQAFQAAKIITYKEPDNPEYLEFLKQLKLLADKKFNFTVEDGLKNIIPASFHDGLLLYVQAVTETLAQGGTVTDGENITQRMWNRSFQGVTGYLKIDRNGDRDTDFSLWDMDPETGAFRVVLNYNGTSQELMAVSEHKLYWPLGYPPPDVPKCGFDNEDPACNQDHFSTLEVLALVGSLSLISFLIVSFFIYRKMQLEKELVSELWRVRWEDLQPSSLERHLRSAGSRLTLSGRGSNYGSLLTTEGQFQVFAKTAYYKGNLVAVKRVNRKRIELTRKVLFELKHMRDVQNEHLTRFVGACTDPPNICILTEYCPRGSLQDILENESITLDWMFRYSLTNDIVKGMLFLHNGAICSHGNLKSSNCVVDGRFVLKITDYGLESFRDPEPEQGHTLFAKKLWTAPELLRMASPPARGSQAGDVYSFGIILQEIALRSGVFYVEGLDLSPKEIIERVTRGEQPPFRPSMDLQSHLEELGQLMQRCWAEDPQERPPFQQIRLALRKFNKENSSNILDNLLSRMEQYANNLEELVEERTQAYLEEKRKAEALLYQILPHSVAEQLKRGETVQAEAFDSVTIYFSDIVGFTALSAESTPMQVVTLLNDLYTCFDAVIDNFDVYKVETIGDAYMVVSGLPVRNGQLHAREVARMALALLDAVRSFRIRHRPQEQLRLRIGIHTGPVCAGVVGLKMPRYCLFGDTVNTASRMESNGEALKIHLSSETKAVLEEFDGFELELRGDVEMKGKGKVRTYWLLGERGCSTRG

[2] = molecular target: T2, membrane guanylyl cyclase (guanylyl cyclase type B, GC-B) (Homo sapiens, UniProt P20594); test: CNP-induced cyclic GMP accumulation in BE-2(C) neuroblastoma cells
T2 sequence (P20594 23-1047): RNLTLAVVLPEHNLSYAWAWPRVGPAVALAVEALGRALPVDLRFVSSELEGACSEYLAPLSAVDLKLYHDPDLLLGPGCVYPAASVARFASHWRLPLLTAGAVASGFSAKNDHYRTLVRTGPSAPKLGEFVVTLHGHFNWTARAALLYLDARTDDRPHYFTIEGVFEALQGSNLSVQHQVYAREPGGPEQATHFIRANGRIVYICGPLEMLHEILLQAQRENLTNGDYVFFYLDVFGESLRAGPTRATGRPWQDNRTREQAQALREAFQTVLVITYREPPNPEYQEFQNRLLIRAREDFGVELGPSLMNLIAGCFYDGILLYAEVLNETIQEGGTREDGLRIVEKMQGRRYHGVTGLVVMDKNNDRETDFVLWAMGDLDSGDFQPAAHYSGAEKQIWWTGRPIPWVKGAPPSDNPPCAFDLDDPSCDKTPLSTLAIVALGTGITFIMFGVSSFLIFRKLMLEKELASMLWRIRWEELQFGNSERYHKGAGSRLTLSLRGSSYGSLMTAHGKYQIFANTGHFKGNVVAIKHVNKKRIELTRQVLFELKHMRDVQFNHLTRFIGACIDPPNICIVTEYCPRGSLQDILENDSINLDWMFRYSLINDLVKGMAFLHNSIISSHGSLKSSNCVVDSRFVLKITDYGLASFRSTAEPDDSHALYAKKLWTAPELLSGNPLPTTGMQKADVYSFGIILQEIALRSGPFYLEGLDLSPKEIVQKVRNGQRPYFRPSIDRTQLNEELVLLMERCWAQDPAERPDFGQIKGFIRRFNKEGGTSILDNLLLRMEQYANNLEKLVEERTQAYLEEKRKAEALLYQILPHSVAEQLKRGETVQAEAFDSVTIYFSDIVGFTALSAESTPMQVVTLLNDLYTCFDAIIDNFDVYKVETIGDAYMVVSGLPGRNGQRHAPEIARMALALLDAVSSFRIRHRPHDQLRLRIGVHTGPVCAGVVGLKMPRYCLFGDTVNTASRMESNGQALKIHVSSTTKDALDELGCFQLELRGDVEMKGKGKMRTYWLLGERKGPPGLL

Cn1c2c(c(=O)n(C)c1=O)C(c1cccc(Br)c1)C1=C(N2)c2ccccc2C1=O (stereo not shown) [compound IIb]
amount of cyclic AMP accumulated (adenylyl cyclase): 1.2±0.1 nmol/mg protein
inhibition of cholera toxin-induced cyclic AMP (adenylyl cyclase; T84 cells, cholera toxin 1 μg/ml, 50 μM compound): 84.6%
increase in chloride efflux induced by 8-bromo cyclic AMP or ionomycin (T84 cells): not influenced
increase in chloride efflux induced by isoproterenol, cholera toxin and forskolin (T84 cells): significantly suppressed
chloride anion efflux, increase in fluorescence of MQAE (T84 cells; 50 μM forskolin, forskolin alone 2690, baseline 477): 428 relative units in 10 min
inhibition of cyclic GMP accumulation (FIG. 6) [1]: inhibition
IC50 [2]: 11.2 µM
